Measured values published in PubChem BioAssay AID330 (DTP/NCI, 2004).
Where “and” joins values, the source holds several entries; their conditions need not be identical. Identical values can stand only once. Inconclusive results and toxic doses are left out. How the source made its calls: active means survival T/C of 150% or more; inactive means T/C below 125% in these data.

Tested on: P388 leukemia ip, CD2F1 mice, survival T/C
Test: NCI In Vivo Anticancer Drug Screen. Data for tumor model P388 Leukemia (intraperitoneal) in CD2F1 (CDF1) mice
Settings: endpoint: median survival time, higher = longer survival
In short: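 Mice carrying the transplanted tumor received test compound or vehicle. Survival was recorded in each group, and the value is the treated-group measurement divided by that of the vehicle-treated control group.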

[1] = dose: 25.0 mg/kg/injection, schedule: Q04DX003 (ip), vehicle: saline with Tween-80
[2] = dose: 50.0 mg/kg/injection, schedule: Q04DX003 (ip), vehicle: saline with Tween-80
[3] = dose: 100.0 mg/kg/injection, schedule: Q04DX003 (ip), vehicle: saline with Tween-80
[4] = dose: 60.0 mg/kg/injection, schedule: Q01DX005 (ip), vehicle: saline with Tween-80
[5] = dose: 120.0 mg/kg/injection, schedule: Q01DX005 (ip), vehicle: saline with Tween-80
[6] = dose: 240.0 mg/kg/injection, schedule: Q01DX005 (ip), vehicle: saline with Tween-80
[7] = dose: 50.0 mg/kg/injection, schedule: Q01DX005 (ip), vehicle: saline with Tween-80
[8] = dose: 100.0 mg/kg/injection, schedule: Q01DX005 (ip), vehicle: saline with Tween-80
[9] = dose: 50.0 mg/kg/injection, schedule: Q01DX009 (ip), vehicle: saline with Tween-80
[10] = dose: 100.0 mg/kg/injection, schedule: Q01DX009 (ip), vehicle: saline with Tween-80
[11] = dose: 200.0 mg/kg/injection, schedule: Q01DX005 (ip), vehicle: saline with Tween-80
[12] = dose: 60.0 mg/kg/injection, schedule: Q01DX005 (ip), vehicle: Klucel (hydroxypropylcellulose) (HPC)
[13] = dose: 120.0 mg/kg/injection, schedule: Q01DX005 (ip), vehicle: Klucel (hydroxypropylcellulose) (HPC)
[14] = dose: 240.0 mg/kg/injection, schedule: Q01DX005 (ip), vehicle: Klucel (hydroxypropylcellulose) (HPC)
[15] = dose: 25.0 mg/kg/injection, schedule: Q01DX009 (ip), vehicle: saline with Tween-80

Measured: T/C

CNC(=O)Nc1c(C)cccc1C
inactive: [1] 104 % of control | [2] 100 % of control | [3] 105 % of control | dose: 200.0 mg/kg/injection, schedule: Q04DX003 (ip), vehicle: saline with Tween-80 107 % of control

O=c1[nH]c2c(c(=O)n1CC(O)CO)CCCC2 (configuration not stated)
inactive: [4] 104 % of control | [5] 100 % of control | [6] 100 % of control

O=C(O)/C=C/C(=O)Nc1ccc(Cl)c(Cl)c1
inactive: dose: 6.25 mg/kg/injection, schedule: Q01DX009 (ip), vehicle: Klucel (hydroxypropylcellulose) (HPC) 105 % of control | dose: 12.5 mg/kg/injection, schedule: Q01DX009 (ip), vehicle: Klucel (hydroxypropylcellulose) (HPC) 115 % of control | dose: 25.0 mg/kg/injection, schedule: Q01DX009 (ip), vehicle: Klucel (hydroxypropylcellulose) (HPC) 105 % of control | dose: 400.0 mg/kg/injection, schedule: Q01DX009 (ip), vehicle: Klucel (hydroxypropylcellulose) (HPC) 109 % of control

O=c1c2sc3ccccc3c2ncn1/N=C/c1cccc([N+](=O)[O-])c1
inactive: dose: 50.0 mg/kg/injection, schedule: Q01DX005 (ip), vehicle: Klucel (hydroxypropylcellulose) (HPC) 99 % of control | dose: 100.0 mg/kg/injection, schedule: Q01DX005 (ip), vehicle: Klucel (hydroxypropylcellulose) (HPC) 92 % of control | dose: 200.0 mg/kg/injection, schedule: Q01DX005 (ip), vehicle: Klucel (hydroxypropylcellulose) (HPC) 91 % of control

Cc1ccnc(NCc2ccccn2)c1
inactive: [7] 105 % of control | [8] 102 % of control

CC(=O)N/N=C(/C(=O)O)c1ccccc1
inactive: dose: 100.0 mg/kg/injection, schedule: Q04DX002 (ip), vehicle: Klucel (hydroxypropylcellulose) (HPC) 98 % of control | dose: 200.0 mg/kg/injection, schedule: Q04DX002 (ip), vehicle: Klucel (hydroxypropylcellulose) (HPC) 99 % of control | dose: 400.0 mg/kg/injection, schedule: Q04DX002 (ip), vehicle: Klucel (hydroxypropylcellulose) (HPC) 95 % of control

O=C(Nc1ccc(OCCCCCOc2ccccc2)cc1)C(F)(F)F
inactive: [9] 100 % of control | [10] 116 % of control | dose: 200.0 mg/kg/injection, schedule: Q01DX009 (ip), vehicle: saline with Tween-80 114 % of control

COc1cc(C(Nc2ccccn2)c2cc3c(cc2O)OCO3)cc(OC)c1OC (configuration not stated)
inactive: [4] 100 % of control | [5] 94 % of control | [6] 94 % of control

CN(C)c1nc(-c2ccccc2)c(Cc2ccccc2)c(=O)o1
inactive: [4] 99 % of control | [5] 92 % of control | [6] 89 % of control

COc1cccc(/C=N/NP(=S)(Oc2ccc(C(C)(C)C)cc2)Oc2ccc(C(C)(C)C)cc2)c1OC
inactive: [7] 98 % of control | [8] 95 % of control | [11] 100 % of control

COC12CC(=O)C(C(C)=O)=C(O)C1(C)c1c(O)c(C)c(O)c(C(C)=O)c1O2 (configuration not stated)
inactive: dose: 6.25 mg/kg/injection, schedule: Q01DX009 (ip), vehicle: gum acacia 105 % of control and 108 % of control | dose: 12.5 mg/kg/injection, schedule: Q01DX009 (ip), vehicle: gum acacia 109 % of control and 111 % of control | dose: 25.0 mg/kg/injection, schedule: Q01DX009 (ip), vehicle: gum acacia 111 % of control and 115 % of control | dose: 50.0 mg/kg/injection, schedule: Q01DX009 (ip), vehicle: gum acacia 107 % of control and 113 % of control

COc1cc2c(cc1OC)C(c1cccc(Cl)c1)=NN=C(C)C2
inactive: [12] 105 % of control | [13] 101 % of control | [14] 96 % of control

COc1ccc(-c2coc3cc(OC4OC(CO)C(O)C(O)C4O)cc(O)c3c2=O)cc1 (configuration not stated)
inactive: [15] 98 % of control | [9] 92 % of control | [10] 94 % of control

O=C(/C=C\c1ccc(NCc2ccc(C(=O)O)cc2)cc1)CCl
inactive: [15] 122 % of control | [1] 100 % of control | [9] 122 % of control | [2] 104 % of control | [3] 109 % of control

O=C1Cc2nc3ccccc3nc2CC(=O)c2ccccc21
inactive: dose: 50.0 mg/kg/injection, schedule: Q04DX002 (ip), vehicle: saline with Tween-80 90 % of control | dose: 100.0 mg/kg/injection, schedule: Q04DX002 (ip), vehicle: saline with Tween-80 87 % of control | dose: 200.0 mg/kg/injection, schedule: Q04DX002 (ip), vehicle: saline with Tween-80 90 % of control

CN(C)c1ncnc2c1ccn2CC(O)CO (configuration not stated)
inactive: dose: 50.0 mg/kg/injection, schedule: Q01DX005 (ip), vehicle: distilled water + alcohol 109 % of control | dose: 100.0 mg/kg/injection, schedule: Q01DX005 (ip), vehicle: distilled water + alcohol 101 % of control | dose: 200.0 mg/kg/injection, schedule: Q01DX005 (ip), vehicle: distilled water + alcohol 97 % of control

CC(=O)OCC12C(OC(C)=O)CC(C)C3(CC(c4ccoc4)OC3=O)C1CCC(=O)C2(O)CCl (configuration not stated)
inactive: dose: 0.75 mg/kg/injection, schedule: Q01DX005 (ip), vehicle: saline + alcohol 106 % of control | dose: 1.5 mg/kg/injection, schedule: Q01DX005 (ip), vehicle: saline + alcohol 103 % of control | dose: 3.0 mg/kg/injection, schedule: Q01DX005 (ip), vehicle: saline + alcohol 106 % of control | dose: 6.0 mg/kg/injection, schedule: Q01DX005 (ip), vehicle: saline + alcohol 108 % of control | dose: 12.0 mg/kg/injection, schedule: Q01DX005 (ip), vehicle: saline + alcohol 106 % of control | dose: 12.5 mg/kg/injection, schedule: Q01DX005 (ip), vehicle: saline + Tween-80 + alcohol 92 % of control | dose: 25.0 mg/kg/injection, schedule: Q01DX005 (ip), vehicle: saline + Tween-80 + alcohol 98 % of control | dose: 100.0 mg/kg/injection, schedule: Q01DX005 (ip), vehicle: saline + Tween-80 + alcohol 89 % of control | dose: 150.0 mg/kg/injection, schedule: Q01DX005 (ip), vehicle: saline + Tween-80 + alcohol 91 % of control

C=C1SC(=Nc2cccc(OC)c2)N(c2nc(Cl)nc(Cl)n2)C12CCCCC2
inactive: dose: 50.0 mg/kg/injection, schedule: Q01DX009 (ip), vehicle: saline 100 % of control | dose: 100.0 mg/kg/injection, schedule: Q01DX009 (ip), vehicle: saline 101 % of control | dose: 200.0 mg/kg/injection, schedule: Q01DX009 (ip), vehicle: saline 100 % of control

O=C(Cc1nc2ccccc2[nH]1)C(F)(F)F
inactive: dose: 100.0 mg/kg/injection, schedule: Q01DX001 (ip), vehicle: Klucel (hydroxypropylcellulose) (HPC) 104 % of control | dose: 200.0 mg/kg/injection, schedule: Q01DX001 (ip), vehicle: Klucel (hydroxypropylcellulose) (HPC) 94 % of control | dose: 400.0 mg/kg/injection, schedule: Q01DX001 (ip), vehicle: Klucel (hydroxypropylcellulose) (HPC) 101 % of control

Clc1ccc(C(Nc2nncs2)Nc2nncs2)cc1
inactive: [4] 94 % of control | [5] 93 % of control | [6] 98 % of control

CCOC(=O)c1cnc2cc(Cl)ccc2c1N=[N+]=[N-]
inactive: [4] 91 % of control | [5] 100 % of control | [6] 99 % of control

Cc1cc(=O)c2c([nH]1)c1c(c3[nH]c(C)cc(=O)c32)Oc2ccccc2O1
inactive: [7] 93 % of control | [8] 95 % of control | [11] 97 % of control

CC(O)(c1ccccc1)C1C(c2ccccc2)N1Cc1ccccc1 (configuration not stated)
inactive: dose: 50.0 mg/kg/injection, schedule: Q04DX003 (ip), vehicle: saline sonified 100 % of control | dose: 100.0 mg/kg/injection, schedule: Q04DX003 (ip), vehicle: saline sonified 91 % of control

C=CC(C)(C)c1c(OC)cc(-c2ccccc2)oc1=O
inactive: dose: 8.0 mg/kg/injection, schedule: Q01DX005 (ip), vehicle: Klucel + Tween-80 103 % of control | dose: 16.0 mg/kg/injection, schedule: Q01DX005 (ip), vehicle: Klucel + Tween-80 103 % of control | dose: 32.0 mg/kg/injection, schedule: Q01DX005 (ip), vehicle: Klucel + Tween-80 109 % of control | dose: 64.0 mg/kg/injection, schedule: Q01DX005 (ip), vehicle: Klucel + Tween-80 107 % of control

COc1ccccc1N=Nc1c(-c2cccs2)nn(C(N)=S)c1C(F)(F)F
inactive: [12] 99 % of control | [13] 97 % of control | [14] 89 % of control

Nc1c(Cl)c(Cl)c(Br)c(Cl)c1Cl
inactive: [9] 92 % of control | [10] 90 % of control
